Key:
Bile salt export pump = Bile salt export pump (Homo sapiens, UniProt O95342); test: Inhibition of BSEP (unknown origin); format: ADME
[1] = target: T1, Solute carrier organic anion transporter family member 1B1 (Homo sapiens, UniProt Q9Y6L6); test: Inhibition of OATP1B1 (unknown origin); format: ADME
T1 sequence (Q9Y6L6 whole entry): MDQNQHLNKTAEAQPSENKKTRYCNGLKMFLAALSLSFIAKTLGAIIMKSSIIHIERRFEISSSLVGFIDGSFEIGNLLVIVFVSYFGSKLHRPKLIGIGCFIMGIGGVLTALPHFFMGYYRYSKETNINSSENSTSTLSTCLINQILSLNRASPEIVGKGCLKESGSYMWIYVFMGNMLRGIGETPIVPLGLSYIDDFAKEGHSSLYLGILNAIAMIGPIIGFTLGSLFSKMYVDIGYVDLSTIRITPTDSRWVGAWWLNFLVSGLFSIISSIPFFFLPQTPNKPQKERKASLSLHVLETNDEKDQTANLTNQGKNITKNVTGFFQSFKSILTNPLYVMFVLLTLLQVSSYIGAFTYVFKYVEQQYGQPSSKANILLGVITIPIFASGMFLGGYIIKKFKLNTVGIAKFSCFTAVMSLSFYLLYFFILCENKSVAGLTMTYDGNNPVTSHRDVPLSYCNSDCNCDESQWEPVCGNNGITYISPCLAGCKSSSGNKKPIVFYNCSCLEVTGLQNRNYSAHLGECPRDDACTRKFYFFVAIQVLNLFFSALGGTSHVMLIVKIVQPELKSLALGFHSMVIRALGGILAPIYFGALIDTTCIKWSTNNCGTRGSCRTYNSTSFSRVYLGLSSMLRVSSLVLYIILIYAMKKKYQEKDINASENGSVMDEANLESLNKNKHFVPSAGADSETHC

[2] = Drug concentration in po dosed monkey plasma assessed as concentration of parent compound; format: ADME, organism-based, Macaca mulatta; details: rhesus monkey, in vivo
[3] = Protein binding in human plasma assessed as free fraction at 3 mg/kg, po or 1 mg/kg, iv measured up to 24 hrs by LC-MS/MS analysis; format: ADME, organism-based
[4] = Protein binding in Sprague-Dawley rat plasma assessed as free fraction at 3 mg/kg, po or 1 mg/kg, iv measured up to 24 hrs by LC-MS/MS analysis; format: ADME, organism-based
[5] = Protein binding in CD-1 mouse plasma assessed as free fraction at 3 mg/kg, po or 1 mg/kg, iv measured up to 24 hrs by LC-MS/MS analysis; format: ADME, organism-based

Sequence of Bile salt export pump (O95342 whole entry): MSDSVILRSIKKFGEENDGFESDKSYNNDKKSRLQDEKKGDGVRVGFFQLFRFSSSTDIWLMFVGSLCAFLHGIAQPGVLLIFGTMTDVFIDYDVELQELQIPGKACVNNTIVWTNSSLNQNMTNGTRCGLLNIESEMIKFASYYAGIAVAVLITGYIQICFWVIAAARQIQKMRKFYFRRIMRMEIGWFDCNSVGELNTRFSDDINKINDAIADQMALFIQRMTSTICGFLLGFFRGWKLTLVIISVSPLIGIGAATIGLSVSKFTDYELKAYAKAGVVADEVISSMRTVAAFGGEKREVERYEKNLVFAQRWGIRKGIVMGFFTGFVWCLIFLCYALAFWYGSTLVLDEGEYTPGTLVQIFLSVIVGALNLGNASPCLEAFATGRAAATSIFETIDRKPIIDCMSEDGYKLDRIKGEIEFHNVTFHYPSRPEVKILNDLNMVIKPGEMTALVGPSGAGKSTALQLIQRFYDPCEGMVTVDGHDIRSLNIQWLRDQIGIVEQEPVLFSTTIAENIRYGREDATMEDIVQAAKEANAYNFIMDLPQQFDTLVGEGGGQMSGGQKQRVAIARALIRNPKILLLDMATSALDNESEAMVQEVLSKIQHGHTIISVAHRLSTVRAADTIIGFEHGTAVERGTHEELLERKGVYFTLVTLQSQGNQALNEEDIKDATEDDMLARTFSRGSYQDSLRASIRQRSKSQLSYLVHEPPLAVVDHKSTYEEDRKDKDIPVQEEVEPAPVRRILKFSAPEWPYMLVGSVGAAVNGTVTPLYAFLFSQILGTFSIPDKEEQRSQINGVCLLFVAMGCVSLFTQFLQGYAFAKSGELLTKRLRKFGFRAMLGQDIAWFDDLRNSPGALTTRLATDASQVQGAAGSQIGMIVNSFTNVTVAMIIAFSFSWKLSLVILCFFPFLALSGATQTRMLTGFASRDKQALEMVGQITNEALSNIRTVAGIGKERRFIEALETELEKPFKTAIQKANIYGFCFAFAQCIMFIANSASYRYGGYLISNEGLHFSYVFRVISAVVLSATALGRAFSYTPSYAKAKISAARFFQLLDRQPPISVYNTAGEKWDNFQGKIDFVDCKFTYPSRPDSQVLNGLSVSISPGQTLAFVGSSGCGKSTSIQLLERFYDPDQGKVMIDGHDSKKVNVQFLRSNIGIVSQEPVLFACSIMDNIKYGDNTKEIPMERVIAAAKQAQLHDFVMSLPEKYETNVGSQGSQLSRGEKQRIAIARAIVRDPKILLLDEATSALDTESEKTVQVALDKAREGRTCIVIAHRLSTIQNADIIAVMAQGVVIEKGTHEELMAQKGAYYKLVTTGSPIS

| SMILES | IC50 (Bile salt export pump) | IC50 [1] | Drug uptake [2] | fraction unbound at 24 h [3] | fraction unbound at 24 h [4] | fraction unbound at 24 h [5] |
| --- | --- | --- | --- | --- | --- | --- |
| Cc1noc(-c2ccc(O[C@H]3CCC[C@H](C(=O)O)C3)nn2)c1COC(=O)N(C)C1CCCC1 (racemic) | > 50 µM | 35.4 µM | – | – | – | – |
| CCCNC(=O)OCc1c(-c2ccc(O[C@H]3CCC[C@H](C(=O)O)C3)c(C)n2)nnn1C | – | – | < 10% | – | – | – |
| CCCN(C)C(=O)OCc1c(-c2ccc(O[C@H]3CCC[C@H](C(=O)O[C@@H]4O[C@H](C(=O)O)[C@@H](O)[C@H](O)[C@H]4O)C3)c(C)n2)nnn1C | – | – | < 10% | – | – | – |
| CN(C(=O)OCc1c(-c2ccc(O[C@H]3CCC[C@H](C(=O)O)C3)cn2)nnn1C)C1CCCC1 | 46.3 µM | 9.2 µM | – | 0.025 | 0.025 | 0.083 |
